From the NIST ThermoML archive (doi:10.1007/s10765-005-5572-8)
± gives the expanded uncertainty stated by the source.

Experiments:
[1] = 298.15 K; 101 kPa; Liquid
[2] = refractive index (Na D-line) (dimensionless); conditions: 298.15 K; 101.33 kPa; Liquid; Standard Abbe refractometry
[3] = xn = mol fraction of the nth substance listed; conditions: 298.15 K, 101 kPa, Liquid
[4] = refractive index (Na D-line) (dimensionless); xn = mol fraction of the nth substance listed; conditions: 298.15 K, 101 kPa, Liquid, Standard Abbe refractometry

CC(C)CCCC(C)CCCC(C)CCCCC(C)CCCC(C)CCCC(C)C (stereo not drawn) [2,6,10,15,19,23-hexamethyltetracosane]
Conditions	mass density [kg/m3]	refractive index	viscosity [mPa·s]
[1]	805.4 ± 1.4	–	31.12 ± 1.1
[2]	–	1.4474 ± 0.0058	–

CC(C)CCCC(C)CCCC(C)CCCCC(C)CCCC(C)CCCC(C)C (stereo not drawn) [2,6,10,15,19,23-hexamethyltetracosane] + CCCCCC
Conditions	mass density, [3] [kg/m3]	refractive index, [4]	viscosity, [3] [mPa·s]
x1 = 0.0144	663.9 ± 1.1	1.3798 ± 0.0056	0.405 ± 0.2
x1 = 0.0481	682.1 ± 1.1	1.3904 ± 0.0056	0.593 ± 0.2
x1 = 0.0748	694.2 ± 1.2	1.3976 ± 0.0056	0.727 ± 0.2
x1 = 0.1218	711.9 ± 1.2	1.4068 ± 0.0057	0.971 ± 0.2
x1 = 0.1779	728.5 ± 1.2	1.4153 ± 0.0057	1.413 ± 0.21
x1 = 0.2858	751.4 ± 1.3	1.4244 ± 0.0057	2.923 ± 0.23
x1 = 0.3695	764 ± 1.3	1.431 ± 0.0058	4.685 ± 0.27
x1 = 0.4258	770.7 ± 1.3	1.4349 ± 0.0058	6.068 ± 0.3
x1 = 0.5661	783.6 ± 1.3	1.4435 ± 0.0058	10.15 ± 0.4
x1 = 0.718	793.5 ± 1.4	1.4468 ± 0.0058	15.59 ± 0.58
x1 = 0.807	798 ± 1.4	1.4468 ± 0.0058	19.6 ± 0.71
x1 = 0.8939	801.7 ± 1.4	1.447 ± 0.0058	24.32 ± 0.87
x1 = 0.9593	804.1 ± 1.4	1.447 ± 0.0058	28.41 ± 1
x1 = 0.9943	805.2 ± 1.4	1.4472 ± 0.0058	30.74 ± 1.1
x1 = 1	805.4 ± 1.4	1.4474 ± 0.0058	31.12 ± 1.1

C1CCCCC1 [cyclohexane]
Conditions	mass density [kg/m3]	refractive index	viscosity [mPa·s]
[1]	773.7 ± 1.3	–	0.898 ± 0.045
[2]	–	1.4235 ± 0.0057	–

C1CCCCC1 [cyclohexane] + CCCCCC
[3]
Conditions	mass density [kg/m3]	viscosity [mPa·s]
x1 = 0.0357	658.2 ± 1.1	0.295 ± 0.019
x1 = 0.1127	665.9 ± 1.1	0.301 ± 0.019
x1 = 0.2	674.9 ± 1.1	0.312 ± 0.02
x1 = 0.3288	688.6 ± 1.2	0.342 ± 0.021
x1 = 0.462	703.5 ± 1.2	0.405 ± 0.024
x1 = 0.5424	712.9 ± 1.2	0.451 ± 0.026
x1 = 0.577	717 ± 1.2	0.472 ± 0.027
x1 = 0.6703	728.4 ± 1.2	0.539 ± 0.03
x1 = 0.7543	739.2 ± 1.3	0.603 ± 0.032
x1 = 0.8703	754.9 ± 1.3	0.71 ± 0.037
x1 = 0.9451	765.5 ± 1.3	0.794 ± 0.041
x1 = 0.974	769.7 ± 1.3	0.842 ± 0.043
x1 = 0.9935	772.7 ± 1.3	0.894 ± 0.045
x1 = 1	773.7 ± 1.3	0.898 ± 0.045

CCCCCCCCCC [decane]
Conditions	mass density [kg/m3]	refractive index	viscosity [mPa·s]
[1]	726.2 ± 1.2	–	0.859 ± 0.043
[2]	–	1.41 ± 0.0057	–

CCCCCCCCCC [decane] + CCCCCC
Conditions	mass density, [3] [kg/m3]	refractive index, [4]	viscosity, [3] [mPa·s]
x1 = 0.021	657.1 ± 1.1	1.3755 ± 0.0055	0.296 ± 0.019
x1 = 0.0659	662 ± 1.1	1.378 ± 0.0056	0.307 ± 0.02
x1 = 0.1584	671.3 ± 1.1	1.382 ± 0.0056	0.337 ± 0.021
x1 = 0.233	678.1 ± 1.1	1.3854 ± 0.0056	0.355 ± 0.022
x1 = 0.2761	681.8 ± 1.1	1.3871 ± 0.0056	0.377 ± 0.023
x1 = 0.3493	687.8 ± 1.2	1.39 ± 0.0056	0.417 ± 0.024
x1 = 0.4506	695.3 ± 1.2	1.394 ± 0.0056	0.471 ± 0.027
x1 = 0.541	701.4 ± 1.2	1.3973 ± 0.0056	0.518 ± 0.029
x1 = 0.6382	707.4 ± 1.2	1.4004 ± 0.0056	0.567 ± 0.031
x1 = 0.7836	715.6 ± 1.2	1.4045 ± 0.0057	0.657 ± 0.035
x1 = 0.9095	722 ± 1.2	1.408 ± 0.0057	0.772 ± 0.04
x1 = 0.9654	724.7 ± 1.2	1.4095 ± 0.0057	0.823 ± 0.042
x1 = 0.9936	726 ± 1.2	1.4099 ± 0.0057	0.855 ± 0.043
x1 = 1	726.2 ± 1.2	1.41 ± 0.0057	0.859 ± 0.043

CCCCCCCCCCCCCCCC [hexadecane]
Conditions	mass density [kg/m3]	refractive index	viscosity [mPa·s]
[1]	770.6 ± 1.3	–	3.039 ± 0.14
[2]	–	1.434 ± 0.0058	–

CCCCCCCCCCCCCCCC [hexadecane] + CCCCCC
Conditions	mass density, [3] [kg/m3]	refractive index, [4]	viscosity, [3] [mPa·s]
x1 = 0.0284	662.1 ± 1.1	1.3784 ± 0.0056	0.322 ± 0.02
x1 = 0.0757	673.3 ± 1.1	1.386 ± 0.0056	0.382 ± 0.023
x1 = 0.1349	685.7 ± 1.2	1.395 ± 0.0056	0.473 ± 0.027
x1 = 0.1842	694.9 ± 1.2	1.4006 ± 0.0056	0.559 ± 0.031
x1 = 0.266	708.4 ± 1.2	1.4087 ± 0.0057	0.703 ± 0.037
x1 = 0.3427	719.1 ± 1.2	1.4147 ± 0.0057	0.864 ± 0.044
x1 = 0.4864	735.5 ± 1.2	1.4262 ± 0.0057	1.205 ± 0.058
x1 = 0.503	737.1 ± 1.3	1.4266 ± 0.0057	1.24 ± 0.06
x1 = 0.6779	751.8 ± 1.3	1.4318 ± 0.0058	1.735 ± 0.081
x1 = 0.7546	757 ± 1.3	1.432 ± 0.0058	2.022 ± 0.093
x1 = 0.8927	765.1 ± 1.3	1.4322 ± 0.0058	2.562 ± 0.12
x1 = 0.9468	768 ± 1.3	1.4332 ± 0.0058	2.805 ± 0.13
x1 = 0.9902	770.1 ± 1.3	1.434 ± 0.0058	3.012 ± 0.14
x1 = 1	770.6 ± 1.3	1.434 ± 0.0058	3.039 ± 0.14

CCCCCC [hexane]
Conditions	mass density [kg/m3]	refractive index	viscosity [mPa·s]
[1]	654.8 ± 1.1	–	0.294 ± 0.019
[2]	–	1.3745 ± 0.0055	–

CCCCCC [hexane] + C1CCCCC1
[3], x2 = 0
Conditions	mass density [kg/m3]	viscosity [mPa·s]
–	654.8 ± 1.1	0.294 ± 0.019

CCCCCC [hexane] + CC(C)CCCC(C)CCCC(C)CCCCC(C)CCCC(C)CCCC(C)C
x2 = 0
Conditions	mass density [kg/m3]	refractive index	viscosity [mPa·s]
[3]	654.8 ± 1.1	–	0.294
[4]	–	1.3745 ± 0.0055	–

CCCCCC [hexane] + CCCCCCCCCC
x2 = 0
Conditions	mass density [kg/m3]	refractive index	viscosity [mPa·s]
[3]	654.8 ± 1.1	–	0.294 ± 0.019
[4]	–	1.3745 ± 0.0055	–

CCCCCC [hexane] + CCCCCCCCCCCCCCCC
x2 = 0
Conditions	mass density [kg/m3]	refractive index	viscosity [mPa·s]
[3]	654.8 ± 1.1	–	0.294 ± 0.019
[4]	–	1.3745 ± 0.0055	–
